Assay results reported in publication PMC10683014, “Amino Acids as Chelating Ligands for Platinum: Enhanced Stability in an Aqueous Environment Promoted by Biocompatible Molecules” (Journal of Medicinal Chemistry, 2023).

How the values were obtained:
[1] = Stability in concentrated trimethylglycine (TMG) aqueous solution followed by capillary electrophoresis; type: physicochemical; settings: dissolved in 50% w/v TMG, diluted to final TMG 25%; CE at 230 nm
Text: Kadokawa et al.[35] reported that a highly concentrated solution of trimethyl glycine (TMG, also known as betaine) is able to improve the solubility of cisplatin in water without affecting the pharmacological proprieties of this drug. The mechanism behind this effect seems to lie in the hydrogen bond acceptor property of the carboxylate of TMG, which establishes hydrogen bonds with the amino groups of cisplatin. Betaine is a nontoxic compound and is highly soluble in water. On the basis of this study, we decided to test the solubility of 3 in a highly concentrated (50% w/v) TMG aqueous solution. The platinum compound was soluble enough to allow investigations with the established protocol for capillary electrophoresis. TMG has a strong absorption at low wavelengths, and therefore, a wavelength of 230 nm was chosen instead of 195 nm for recording the electropherograms with TMG.
(§1) A solution of sodium tetraborate (final borate concentration of 50 mM) and sodium dodecyl sulfate (100 mM) was used as a background electrolyte (BGE). The pH of the BGE was adjusted to 9.3 by titration with 1 M NaOH. Every new capillary was rinsed with 1 M NaOH (45 min), water (45 min), and BGE (45 min) before the first use. The capillary was kept on a constant temperature of 25 °C, whereas the sample carousel was temperature-controlled at 37 °C. Sample injection was performed in hydrodynamic mode, applying a pressure of 50 mbar for 2 s on the inlet vial. The separation voltage was set at +20 kV. If not stated differently, a wavelength of 195 nm was employed for the DAD detector. The analytic window was evaluated by using dodecaphenone as a micellar marker and methanol (HPLC grade) as an electroosmotic flow (EOF) marker. The run time required for the analysis was estimated to be 25 min. The capillary was flushed before every run with 0.1 M NaOH (3 min), water (3 min), and BGE (5 min). Every value is calculated from at least three independent measurements. The half-lives were presented as the mean ± standard deviation. All of the samples, buffers, and washing solutions were membrane-filtered (0.22 μm pore size). All samples employed for stability experiments were prepared using benzoic acid as an internal standard (IS).

[2] = test system: MCF-7 breast cancer cell line; assay: MTT metabolic activity (cytotoxicity) assay, MCF-7; type: cell-based; settings: 72 h incubation
Description: (§2) In order to determine the antitumor activity of the platinum complexes, in vitro cytotoxicity tests were performed. Compounds 1–4 were tested with cisplatin as a reference on the breast cancer cell line MCF-7 and the colon carcinoma cell line HT-29. Complexes 1, 4, and 5, as well as the ligand (but-3-en-1-yl 2-acetoxybenzoate, 6) were additionally evaluated on MDA-MB-231 cells and A2780cis cells, also using cisplatin as a reference. The metabolic activity as an indicator of cytotoxicity was determined by a classical 3-(4,5-dimethylthiazol-2-yl)-2,5-diphenyltetrazoliumbromid (MTT) assay.
(§3) The cell lines A2780cis and MDA-MB-231 were cultivated in RPMI 1640 without phenol red (PAN Biotech, Aidenbach, Germany), supplemented with L-glutamine (2 mM), 100 μg/mL penicillin, 100 μg/mL streptomycin, and FCS (10%) (all from Invitrogen Corporation, Gibco, Paisley, Scotland) at 37 °C in a 5% CO2/95% air atmosphere, and passaged twice per week. To maintain resistance, A2780cis cells were incubated every second week with cisplatin (1 μM). The cell lines MCF-7 and HT-29 were grown in DMEM without phenol red (PAN Biotech, Aidenbach, Germany), containing L-glutamine, 100 μg/mL penicillin, 100 μg/mL streptomycin, sodium pyruvate ([…]) (PAN Biotech), and FCS (10%) under the same conditions as the other cell lines.
(§4) The exponentially growing cell lines were seeded at a density of 2000 cells/well for MCF-7 cells, 4000 cells/well for HT-29 cells and MDA-MB-231 cells, and 8000 cells/well for A2780cis cells, respectively, into clear flat-bottom 96-well plates in triplicates. Following 24 h of incubation for adherence at 37 °C in a humidified atmosphere (5% CO2/95% air), the compounds were added to reach the desired concentrations between 10 and 100 μM, respectively. All stock solutions were prepared in dimethylformamide at a concentration of 100 mM and were then diluted with the respective cell-culture medium to the appropriate concentrations. After another 72 h of incubation, the cellular metabolic activity was measured by employing a MTT assay. Hereby, the yellow tetrazolium salt is converted to a purple formazan salt by the functioning mitochondria. These purple crystals are then dissolved in DMSO and can be quantified via absorption measurements at 570 and 420 nm. The optical density of the particular medium was subtracted in order to exclude the unspecific staining caused by the FCS-containing medium. The values were calculated with Excel 2019 (Microsoft, Redmond, WA, USA) using nonlinear regression and the decal logarithm of the inhibitor versus variable slope equation, while the top constraint was set to 100%.

[3] = test system: MDA-MB-231 breast cancer cell line; assay: MTT metabolic activity (cytotoxicity) assay, MDA-MB-231; type: cell-based; settings: for IC50: MTT, 72 h incubation
Description: as §2, §3, §4

[4] = test system: A2780cis ovarian carcinoma cell line (cisplatin-resistant); assay: MTT metabolic activity (cytotoxicity) assay, A2780cis; type: cell-based; settings: for IC50: MTT, 72 h incubation
Description: as §2, §3, §4

human recombinant COX-1 = target: T1, human recombinant COX-1 (Homo sapiens, UniProt P23219); assay: COX-1 inhibition, enzyme immunoassay (COX Inhibitor Screening Assay); type: biochemical; settings: 2 min incubation
T1 construct: purchased Cayman Chemicals
T1 sequence (P23219 24-599): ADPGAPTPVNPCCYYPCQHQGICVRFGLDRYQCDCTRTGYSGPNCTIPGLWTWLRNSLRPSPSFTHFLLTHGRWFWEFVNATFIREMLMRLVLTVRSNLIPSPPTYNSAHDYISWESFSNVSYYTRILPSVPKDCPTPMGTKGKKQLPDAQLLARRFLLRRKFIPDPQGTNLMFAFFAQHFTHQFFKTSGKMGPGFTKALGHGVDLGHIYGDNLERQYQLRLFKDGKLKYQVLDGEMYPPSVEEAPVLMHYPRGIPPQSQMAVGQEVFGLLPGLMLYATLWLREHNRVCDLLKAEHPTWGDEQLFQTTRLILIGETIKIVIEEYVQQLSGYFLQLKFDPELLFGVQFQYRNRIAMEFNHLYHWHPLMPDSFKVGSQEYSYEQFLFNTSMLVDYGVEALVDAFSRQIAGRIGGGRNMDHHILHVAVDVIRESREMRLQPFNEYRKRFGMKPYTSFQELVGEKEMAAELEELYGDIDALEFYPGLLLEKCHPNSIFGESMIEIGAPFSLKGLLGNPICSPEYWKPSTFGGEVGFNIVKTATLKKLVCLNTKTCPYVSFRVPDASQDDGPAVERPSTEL
Description: The incubation time of the compounds with the respective isoenzymes was exactly 2 min. The results are presented as the mean ± SD of three independent experiments with two replicates of each experiment.

[5] = Lipophilicity estimate from MEKC experiments (buffer/micelle partition); type: physicochemical; settings: three independent experiments (one for 5 and 6)
Description: The lipophilicity of the tested compounds was estimated on the basis of MEKC experiments similar to Herbert and Dorsey[37] (see Table 7). The values estimated in this way were compared with theoretical values obtained from two different methods: for platinum complexes, a previously established method[38] was used, while for the organic ligand, the Osiris Property Explorer[39] was employed.
as §1

[6] = 25 μM, without compounds set at 100%

| Molecule | half-life time (τ1/2) in TMG solution [1] | IC50 [2] | metabolic activity (residual) on MDA-MB-231 [3, 6] | IC50 [3] | metabolic activity (residual) on A2780cis [4, 6] | IC50 [4] | % Inhibition COX-1 (human recombinant COX-1; 10 μM) | % Inhibition COX-1 (human recombinant COX-1; 25 μM) | coefficient of partition between buffer and micelles (k′), average [5] |
| --- | --- | --- | --- | --- | --- | --- | --- | --- | --- |
| (Ethylene,N-trans)(L-alaninato-N,O)chlorido(η^2-(but-3-en-1-yl)-2-acetoxybenzoate)platinate(II) [compound 4] | >72 h | 22.5 ± 3.23 µM | 7.71% | 15.4 ± 0.74 µM | 33.13% | 22.5 ± 0.97 µM | 56.51 ± 0.72% | 65.95 ± 4.01% | 3.383 ± 0.016 |
| C=C.C[C@H](N)C(=O)[O][Pt][Cl] [1a, (Ethylene,N-trans)(L-alaninato-N,O)chlorido(η^2-ethene)platinate(II)] | 24.3 ± 2.6 h | > 100 µM | – | > 50 µM | – | > 50 µM | 43.67 ± 3.87% | 73.82 ± 5.60% | 0.629 ± 0.009 |
